Source: US10780174B2, “Lipid-linked prodrugs” (The University of British Columbia, priority 2015, dated 2020)

Legend:
[1] = Particle size and polydispersity of LNP containing prodrug (dynamic light scattering); assay type: physicochemical; conditions: PDI in brackets; for Particle size (PDI) PC-Chol LNP: LD-DEX prodrug in PC-Chol LNP; for Particle size (PDI) [ionizable LNP]: LD-DEX prodrug in ionizable LNP
Method: (§1) Preparation of LNP Systems: PC-Chol LNP systems were prepared by rapidly mixing POPC, cholesterol, lipid-linked prodrug and PEG-DMPE (in molar ratio of 49/39/10/2) dissolved in ethanol with phosphate-buffered saline using a T-junction mixer. Formulations were dialyzed against phosphate-buffered saline to remove residual ethanol and to raise the pH to 7.4. PC-TO and ionizable LNP systems were prepared in the same way except that the lipid compositions for these systems are: POPC, triolein, lipid-linked prodrug and PEG-DSPE (in molar ration of 19/70/10/1), and ionizable lipid, DSPC, cholesterol, lipid-linked prodrug and PEG-DMPE (in molar ration of 40/10/38.5/10/1.5), respectively.
Characterization of LNP: Particle size was determined by dynamic light scattering using a Malvern Zetasizer Nano ZS™ (Malvern, UK) following buffer exchange into phosphate-buffered saline. Number-weighted size and distribution data was used. Lipid concentrations were determined by measuring total cholesterol using the Cholesterol E enzymatic assay kit from Wako Chemicals USA™ (Richmond, Va.). The morphology of LNP formulations containing LD-DEX was analyzed by cryogenic-transmission electron microscopy (cryoTEM) as described previously [Leung et al. (2012)].

[2] = Prodrug incorporation (entrapment) in lipid nanoparticles, UHPLC; assay type: physicochemical; conditions: for % Entrapment PC-Chol LNP: LD-DEX prodrug in PC-Chol LNP; for % Entrapment [ionizable LNP]: LD-DEX prodrug in ionizable LNP
Method: as §1
(§2) Quantitation of prodrugs by HPLC: LD-DEX/DTX were quantified by ultra high-pressure liquid chromatography (UHPLC) using a Waters Acquity™ UPLC system equipped with a photodiode array detector (PDA) and evaporative light scattering (ELS) detector; Empower™ data acquisition software version 3.0 was used (Waters™, USA). Separations were performed using a Waters Acquity™ BEH C18 column (1.7 μm, 2.1×100 mm) at a flow rate of 0.5 ml/min, with mobile phases A and B consisting of methanol/10 mM ammonium bicarbonate (80/20% v/v) and methanol/acetonitrile (80/20% v/v), respectively. The mobile phases were delivered at a programmed linear gradient (45%-80% B in 1 min then to 99% B at 2 min) at a column temperature of 55° C. The analyte was measured by PDA (at a wavelength of 239 nm) and ELS detector against calibration standard curves. For the analysis of LD-DEX/DTX breakdown to active compound, linear gradients of 20/80% to 100/0% (acetonitrile/water, v/v) over 7 min were used.

[3] = In vitro degradation of lipid-linked prodrugs in LNP, mouse plasma; assay type: in vitro ADME; conditions: LNP; for prodrug cleavage/degradation after 1 h in plasma: 37° C., mouse plasma
Method: as §2
To determine the biodegradability of the dexamethasone or docetaxel prodrugs (LD-DEX/DTX), 1 mg/mL LNP was incubated in mouse plasma (Cedarlane™, Burlington, Ontario) or PBS supplemented with 10 U of purified esterase (Sigma-Aldrich™, St. […] Post incubation, four volumes of chloroform/methanol (2:1) was added and the mixture was vortex mixed. Samples were centrifuged at 13,000 g for 5 minutes and the upper phase was discarded. The remaining organic phase was dried down under vacuum and the resulting lipid extract was dissolved in methanol/acetonitrile (1:1). Quantity of parent LD-DEX/DTX compound was determined by ultra high pressure liquid chromatography on a Waters Acquity™ H-Class UPLC System™ equipped with a BEH C18 column and a photodiode array detector.

[4] = tested on: immunostimulatory effects of LNP-CpG (plasma cytokines); assay: In vivo immune suppression by LD-DEX prodrugs, LNP-CpG model; design: species or system C57Bl/6 mice; conditions: mice, i.v., 10 mg/kg of CpG, 2 h post injection
Method: 6-8 Weeks old female C57Bl/6 mice (Charles River Laboratories™, Wilmington, Mass.) were injected intravenously with lipid nanoparticles containing CpG DNA oligonucleotides (10 mg/kg), mRNA (3 mg/kg) or plasmid DNA (pDNA) (1 mg/kg). Animals were euthanized 2 hours post-injection and blood was collected via intracardiac or saphenous sampling. Plasma was separated from whole blood by centrifugation and analyzed for proinflammatory cytokines using the Mesoscale Proinflammatory Multiplex™ kit (Rockville, Md.) according to manufacturer's instruction. All procedures were approved by the Animal Care Committee at the University of British Columbia and were performed in accordance with guidelines established by the Canadian Council on Animal Care.

[5] = tested on: IL1β expression in RAW 264.7 mouse macrophage cells; assay: In vitro immune suppression, LPS-treated RAW 264.7 cells, IL1β qRT-PCR; assay type: cell-based; conditions: 2 ng/mL LPS, 4 h
Method: RAW 264.7 mouse macrophage cells were seeded at 250,000 cells per mL on 12-well plates and incubated at 37° C. overnight. Lipopolysaccharide (LPS) was dissolved in phosphate buffered saline at a concentration of 2 μg/ml. Cells were treated with lipid nanoparticles containing LD-DEX prodrugs and 2 ng/ml of LPS for 4 hours. This LPS concentration was chosen due to its ability to increase IL1β expression approximately 1000 times as compared to untreated cells. At the end of the incubation period, culture medium was aspirated and cellular RNA was extracted using the Purelink RNA™ extraction kit according to manufacturer's protocol (Life Technologies™, Burlington, ON). The concentration of extracted RNA was determined using a Nanodrop Lite™ (Thermo Fisher™). 1 μg of RNA was converted to cDNA using the High Capacity cDNA Reverse Transcription kit (Life Technologies™, Burlington, ON). In order to validate the sample preparation, a no template control and a negative reverse transcriptase control were included. The cDNA was then quantified using comparative real-time qPCR where the Ct (threshold cycle) values are converted to relative quantity using the 2-ΔΔCT method. The primer-probe sets were designed to bind to cDNA of Interleukin-1β(IL1β). Hypoxanthine-guanine phosphoribosyltransferase (HPRT) was chosen as the endogenous normalizer gene, which is known to maintain consistent levels with varying treatments.

[6] = In vitro dissociation of lipid-linked prodrugs from LNP in human plasma; assay type: in vitro ADME; conditions: human plasma over 24 h, 37° C., PC-Chol LNP or ionizable LNP
Method: LNP were incubated for 0, 3, 5 and 24 h at 37° C. in 400 μL of sterile human plasma (Cedarlane™, Burlington, Ontario) at a final lipid concentration of 1.2 mM. At the various time-points, samples were loaded onto a 1.5×27 cm Sepharose CL-4B column (Sigma-Aldrich™, St. Louis, Mo.). 30×2 mL fractions were collected. Three volumes of methanol/acetonitrile (1:1) were added to each fraction and analyzed by UHPLC to determine the residual LD-DEX/DTX as described above.

OVCAR3 cells = assay: In vitro growth inhibition by LD-DTX prodrugs, cell viability assay; assay type: cell-based; conditions: Homo sapiens, OVCAR-3, 48 h, Ovcar3 cells
Method: OVCAR3 cells were obtained from ATCC (Manassas, Va.). Cells were seeded at 12,000 cells per well on 96-well plates and treated with free docetaxel, prodrugs, lipid nanoparticle formulations with or without prodrugs at 0 to 15 μM of docetaxel for 48 h. Cell viability was determined by a colorimetric assay, based on the tetrazolium salt MIT (3-(4,5-dimethylthiazol-2-yl)-2,5-diphenyltetrazolium bromide), as described previously [Mossman 1983].

[7] = tested on: purified porcine esterase; assay: In vitro degradation of lipid-linked prodrugs in LNP, purified esterase in PBS; conditions: LNP, 24 h incubation

CCCCCCCC/C=C\CCCCCCCCOC(=O)CCC(=O)OCC(=O)[C@@]1(O)[C@H](C)C[C@H]2[C@@H]3CCC4=CC(=O)C=C[C@]4(C)[C@@]3(F)[C@@H](O)C[C@@]21C [LD13-DEX, oleyl 2-((8S,9R,10S,11S,13S,14S,16R,17R)-9-fluoro-11,17-dihydroxy-10,13,16-trimethyl-3-oxo-6,7,8,9,10,11,12,13,14,15,16,17-dodecahydro-3H-cyclopenta[a]phenanthren-17-yl)-2-oxoethyl succinate]
Particle size (PDI) PC-Chol LNP [1]: 61 (0.03) nm | Particle size (PDI) [ionizable LNP] [1]: [49 (0.07)] nm | % Entrapment PC-Chol LNP [2]: 100% | % Entrapment [ionizable LNP] [2]: [96] % | prodrug cleavage/degradation after 1 h in plasma [3]: partially degraded | plasma cytokine (TNFα, IL-6 and IL-10) levels versus control LNP-CpG [4]: able to suppress plasma cytokine | IL1β expression versus control LNP without prodrug [5]: able to reduce IL1β expression

CCCCCCCCCCCCCCCCOC(=O)CCC(=O)OCC(=O)[C@@]1(O)[C@H](C)C[C@H]2[C@@H]3CCC4=CC(=O)C=C[C@]4(C)[C@@]3(F)[C@@H](O)C[C@@]21C [LD14-DEX, palmityl 2-((8S,9R,10S,11S,13S,14S,16R,17R)-9-fluoro-11,17-dihydroxy-10,13,16-trimethyl-3-oxo-6,7,8,9,10,11,12,13,14,15,16,17-dodecahydro-3H-cyclopenta[a]phenanthren-17-yl)-2-oxoethyl succinate]
Particle size (PDI) PC-Chol LNP [1]: 67 (0.05) nm | Particle size (PDI) [ionizable LNP] [1]: [47 (0.06)] nm | % Entrapment PC-Chol LNP [2]: 100% | % Entrapment [ionizable LNP] [2]: [95] % | prodrug cleavage/degradation after 1 h in plasma [3]: partially degraded | plasma cytokine (TNFα, IL-6 and IL-10) levels versus control LNP-CpG [4]: able to suppress plasma cytokine | IL1β expression versus control LNP without prodrug [5]: able to reduce IL1β expression

CCCCCCCCCCCCCC(=O)OCC(COC(=O)CCC(=O)OCC(=O)[C@@]1(O)[C@H](C)C[C@H]2[C@@H]3CCC4=CC(=O)C=C[C@]4(C)[C@@]3(F)[C@@H](O)C[C@@]21C)OC(=O)CCCCCCCCCCCCC (stereo partly drawn) [LD17-DEX, 2,3-dimyristroylpropyl (2-((8S,9R,10S,11S,13S,14S,16R,17R)-9-fluoro-11,17-dihydroxy-10,13,16-trimethyl-3-oxo-6,7,8,9,10,11,12,13,14,15,16,17-dodecahydro-3H-cyclopenta[a]phenanthren-17-yl)-2-oxoethyl) succinate]
Particle size (PDI) [ionizable LNP] [1]: [48 (0.06)] nm | % Entrapment [ionizable LNP] [2]: [89] % | prodrug cleavage/degradation after 1 h in plasma [3]: not susceptible to degradation | plasma cytokine (TNFα, IL-6 and IL-10) levels versus control LNP-CpG [4]: able to suppress plasma cytokine | IL1β expression versus control LNP without prodrug [5]: able to reduce IL1β expression

CCCCCCCC/C=C\CCCCCCCCOC(=O)CCC(=O)O[C@@H](C(=O)O[C@H]1C[C@@]2(O)[C@@H](OC(=O)c3ccccc3)[C@@H]3[C@]4(OC(C)=O)CO[C@@H]4C[C@H](O)[C@@]3(C)C(=O)[C@H](O)C(=C1C)C2(C)C)[C@@H](NC(=O)OC(C)(C)C)c1ccccc1 [LD18-DTX, (2R,3S)-1-(((2aR,4S,4aS,6R,9S,11S,12S,12aR,12bS)-12b-acetoxy-12-(benzoyloxy)-4,6,11-trihydroxy-4a,8,13,13-tetramethyl-5-oxo-2a,3,4,4a,5,6,9,10,11,12,12a,12b-dodecahydro-1H-7,11-methanocyclodeca[3,4]benzo[1,2-b]oxet-9-yl)oxy)-3-((tert-butoxycarbonyl)amino)-1-oxo-3-phenylpropan-2-yl(Z)-octadec-9-en-1-ylsuccinate]
prodrug cleavage/degradation after 1 h in plasma [3]: largely not degraded | release of active drug (UPLC chromatogram) in mouse plasma ([3]; 24 h incubation): active docetaxel (DTX) was observed | prodrug dissociation rate from LNP [6]: dissociated at a faster rate from lipid nanoparticles than LD22-DTX | prodrug dissociation rate from LNP ([6]; listed as LD18): dissociates from LNP faster than LD22 | IC50 (OVCAR3 cells; Free drugs): 0.0239 µM | IC50 (OVCAR3 cells; PC-Chol LNP): 0.0373 µM | IC50 (OVCAR3 cells; PC-TO LNP): 0.131 µM | IC50 (OVCAR3 cells; ionizable LNP): 0.064 µM | release of active drug (UPLC chromatogram) in purified esterase [7]: active docetaxel (DTX) was observed
